{"source": "patent US20240074996A1", "about": "“C5 KETONE COMPOSITIONS AND RELATED METHODS FOR TREATING METABOLIC DYSFUNCTION” (Keto Innovations, LLC, priority 2018, published 2024)", "key": {"[1]": {"conditions": "cited from earlier work"}, "[2]": {"test": "Visual analog scale of focus after BHP or BKP (Example 1)", "assay_type": "in vivo, human", "conditions": "scale 1-10, 10 g oral, 12 h fast", "experimental": "(§1) Two (2) healthy, male subjects reported to the laboratory following a 12 hour overnight fast. Subjects were instructed to randomly consume either 10 grams of BHP or 10 grams BKP dissolved in 12 ounces of water. Subjects were then monitored for 150 minutes following drinking the mixture. Blood glucose, ketones, and visual analog scales (VAS) of well-being, energy, and focus were taken at 0, 30, 60, 90, 120, and 150 minutes. VAS scales consisted of a continuum of numbers from 1-10 with 1 being extremely low and 10 being extremely high."}, "[3]": {"test": "Borg Rating of Perceived Exertion during cycling exercise (Example 2)", "assay_type": "in vivo, human", "conditions": "10 grams", "source_text": "The purpose of this experiment was to see if C5 ketones could lower exertion during moderate and high intensity cycling exercise. Five (5) college aged males were given a placebo or BKP (10 grams) prior to and during 2-minute low, moderate and high intensity cycling bouts. […] Perceived exertion is how hard one feels like the body is working."}, "[4]": {"test": "Visual analog scale of energy after BHP or BKP (Example 1)", "assay_type": "in vivo, human", "conditions": "scale 1-10, 10 g oral, 12 h fast", "experimental": "as §1"}, "[5]": {"test": "Blood ketones (BHB, Abbott Precision) after oral BHP or BKP (Example 1)", "assay_type": "in vivo, human", "conditions": "10 g oral in water, 12 h fast", "experimental": "as §1\n(§2) Blood ketones were measured via finger prick using an Abbott Precision device which determines mMol of BHB. Blood glucose was measured using Abbott Precision glucose strips and was measured in mg/dL."}, "[6]": {"test": "Visual analog scale of well-being after BHP or BKP (Example 1)", "assay_type": "in vivo, human", "conditions": "scale 1-10, 10 g oral, 12 h fast", "experimental": "as §1"}, "[7]": {"test": "Blood glucose after oral BHP or BKP (Example 1)", "assay_type": "in vivo, human", "conditions": "10 g oral in water, 12 h fast", "experimental": "as §1, §2"}}, "note": "Where two headings read alike, the source gives them in different places.", "data": [{"smiles": "CC[C@@H](O)CC(=O)O", "note": "[(R)-B-hydroxypentanoate]", "values": [{"measurement": "Utilisation after intravenous administration", "setting": "[1]; nondiabetic animals, intravenous, doses corresponding to 75% of the energy requirement (Leclerc et al 1995)", "value": "very rapidly used"}]}, {"smiles": "CCC(=O)CC(=O)O", "note": "[BKP, β-ketopentanoate]", "values": [{"measurement": "VAS of Focus", "setting": "[2]; Combined, 0 min.", "value": 5.5}, {"measurement": "VAS of Focus", "setting": "[2]; Combined, 30 min.", "value": 5.5}, {"measurement": "VAS of Focus", "setting": "[2]; Combined, 60 min.", "value": 6}, {"measurement": "VAS of Focus", "setting": "[2]; Combined, 90 min.", "value": 6.5}, {"measurement": "VAS of Focus", "setting": "[2]; Combined, 120 min.", "value": 7}, {"measurement": "VAS of Focus", "setting": "[2]; Combined, 150 min.", "value": 7}, {"measurement": "VAS of Focus", "setting": "[2]; Subject 1, 0 min.", "value": 6}, {"measurement": "VAS of Focus", "setting": "[2]; Subject 1, 30 min.", "value": 5}, {"measurement": "VAS of Focus", "setting": "[2]; Subject 1, 60 min.", "value": 7}, {"measurement": "VAS of Focus", "setting": "[2]; Subject 1, 90 min.", "value": 7}, {"measurement": "VAS of Focus", "setting": "[2]; Subject 1, 120 min.", "value": 7}, {"measurement": "VAS of Focus", "setting": "[2]; Subject 1, 150 min.", "value": 8}, {"measurement": "VAS of Focus", "setting": "[2]; Subject 2, 0 min.", "value": 5}, {"measurement": "VAS of Focus", "setting": "[2]; Subject 2, 30 min.", "value": 6}, {"measurement": "VAS of Focus", "setting": "[2]; Subject 2, 60 min.", "value": 5}, {"measurement": "VAS of Focus", "setting": "[2]; Subject 2, 90 min.", "value": 6}, {"measurement": "VAS of Focus", "setting": "[2]; Subject 2, 120 min.", "value": 7}, {"measurement": "VAS of Focus", "setting": "[2]; Subject 2, 150 min.", "value": 6}, {"measurement": "Utilisation after intravenous administration", "setting": "[1]; in vivo, iv", "value": "very rapidly used"}, {"measurement": "Metabolism and tolerance in animals", "setting": "[1]; in vivo", "value": "well metabolized in animals without apparent intolerance"}, {"measurement": "Rating of Perceived Exertion (RPE) High Intensity", "setting": "[3]; college aged males, 2-minute cycling bout, High Intensity", "value": "17 ± 2"}, {"measurement": "Rating of Perceived Exertion (RPE) Low Intensity", "setting": "[3]; college aged males, 2-minute cycling bout, Low Intensity", "value": "9 ± 1"}, {"measurement": "Rating of Perceived Exertion (RPE) Moderate Intensity", "setting": "[3]; college aged males, 2-minute cycling bout, Moderate Intensity", "value": "13 ± 2"}, {"measurement": "Rating of Perceived Exertion (RPE) 30 min.-Post", "setting": "[3]; college aged males, cycling, 30 min.-Post", "value": "8 ± 1"}, {"measurement": "Rating of Perceived Exertion (RPE) Baseline", "setting": "[3]; college aged males, cycling, Baseline", "value": "7 ± 1"}, {"measurement": "Perceived exertion compared to a placebo", "setting": "[3]; moderate and high intensity cycling", "value": "lower perceived exertion at both moderate and high intensity exercise"}, {"measurement": "VAS of Energy", "setting": "[4]; Combined, 0 min.", "value": 6}, {"measurement": "VAS of Energy", "setting": "[4]; Combined, 30 min.", "value": 6.5}, {"measurement": "VAS of Energy", "setting": "[4]; Combined, 60 min.", "value": 7}, {"measurement": "VAS of Energy", "setting": "[4]; Combined, 90 min.", "value": 7}, {"measurement": "VAS of Energy", "setting": "[4]; Combined, 120 min.", "value": 7.5}, {"measurement": "VAS of Energy", "setting": "[4]; Combined, 150 min.", "value": 8}, {"measurement": "VAS of Energy", "setting": "[4]; Subject 1, 0 min.", "value": 7}, {"measurement": "VAS of Energy", "setting": "[4]; Subject 1, 30 min.", "value": 7}, {"measurement": "VAS of Energy", "setting": "[4]; Subject 1, 60 min.", "value": 7}, {"measurement": "VAS of Energy", "setting": "[4]; Subject 1, 90 min.", "value": 8}, {"measurement": "VAS of Energy", "setting": "[4]; Subject 1, 120 min.", "value": 8}, {"measurement": "VAS of Energy", "setting": "[4]; Subject 1, 150 min.", "value": 9}, {"measurement": "VAS of Energy", "setting": "[4]; Subject 2, 0 min.", "value": 5}, {"measurement": "VAS of Energy", "setting": "[4]; Subject 2, 30 min.", "value": 6}, {"measurement": "VAS of Energy", "setting": "[4]; Subject 2, 60 min.", "value": 7}, {"measurement": "VAS of Energy", "setting": "[4]; Subject 2, 90 min.", "value": 6}, {"measurement": "VAS of Energy", "setting": "[4]; Subject 2, 120 min.", "value": 7}, {"measurement": "VAS of Energy", "setting": "[4]; Subject 2, 150 min.", "value": 7}, {"measurement": "Blood ketone levels", "setting": "[5]; Combined, 0 min.", "value": 0.1, "unit": "mmol"}, {"measurement": "Blood ketone levels", "setting": "[5]; Combined, 30 min.", "value": 0.1, "unit": "mmol"}, {"measurement": "Blood ketone levels", "setting": "[5]; Combined, 60 min.", "value": 0.2, "unit": "mmol"}, {"measurement": "Blood ketone levels", "setting": "[5]; Combined, 90 min.", "value": 0.1, "unit": "mmol"}, {"measurement": "Blood ketone levels", "setting": "[5]; Combined, 120 min.", "value": 0.1, "unit": "mmol"}, {"measurement": "Blood ketone levels", "setting": "[5]; Combined, 150 min.", "value": 0.1, "unit": "mmol"}, {"measurement": "Blood ketone levels", "setting": "[5]; Subject 1, 0 min.", "value": 0.1, "unit": "mmol"}, {"measurement": "Blood ketone levels", "setting": "[5]; Subject 1, 30 min.", "value": 0.1, "unit": "mmol"}, {"measurement": "Blood ketone levels", "setting": "[5]; Subject 1, 60 min.", "value": 0.2, "unit": "mmol"}, {"measurement": "Blood ketone levels", "setting": "[5]; Subject 1, 90 min.", "value": 0.1, "unit": "mmol"}, {"measurement": "Blood ketone levels", "setting": "[5]; Subject 1, 120 min.", "value": 0.1, "unit": "mmol"}, {"measurement": "Blood ketone levels", "setting": "[5]; Subject 1, 150 min.", "value": 0.1, "unit": "mmol"}, {"measurement": "Blood ketone levels", "setting": "[5]; Subject 2, 0 min.", "value": 0.1, "unit": "mmol"}, {"measurement": "Blood ketone levels", "setting": "[5]; Subject 2, 30 min.", "value": 0.1, "unit": "mmol"}, {"measurement": "Blood ketone levels", "setting": "[5]; Subject 2, 60 min.", "value": 0.2, "unit": "mmol"}, {"measurement": "Blood ketone levels", "setting": "[5]; Subject 2, 90 min.", "value": 0.1, "unit": "mmol"}, {"measurement": "Blood ketone levels", "setting": "[5]; Subject 2, 120 min.", "value": 0.1, "unit": "mmol"}, {"measurement": "Blood ketone levels", "setting": "[5]; Subject 2, 150 min.", "value": 0.1, "unit": "mmol"}, {"measurement": "VAS of Well-Being", "setting": "[6]; Combined, 0 min.", "value": 6.5}, {"measurement": "VAS of Well-Being", "setting": "[6]; Combined, 30 min.", "value": 6.5}, {"measurement": "VAS of Well-Being", "setting": "[6]; Combined, 60 min.", "value": 7.5}, {"measurement": "VAS of Well-Being", "setting": "[6]; Combined, 90 min.", "value": 7.5}, {"measurement": "VAS of Well-Being", "setting": "[6]; Combined, 120 min.", "value": 8}, {"measurement": "VAS of Well-Being", "setting": "[6]; Combined, 150 min.", "value": 8}, {"measurement": "VAS of Well-Being", "setting": "[6]; Subject 1, 0 min.", "value": 7}, {"measurement": "VAS of Well-Being", "setting": "[6]; Subject 1, 30 min.", "value": 7}, {"measurement": "VAS of Well-Being", "setting": "[6]; Subject 1, 60 min.", "value": 9}, {"measurement": "VAS of Well-Being", "setting": "[6]; Subject 1, 90 min.", "value": 9}, {"measurement": "VAS of Well-Being", "setting": "[6]; Subject 1, 120 min.", "value": 9}, {"measurement": "VAS of Well-Being", "setting": "[6]; Subject 1, 150 min.", "value": 9}, {"measurement": "VAS of Well-Being", "setting": "[6]; Subject 2, 0 min.", "value": 6}, {"measurement": "VAS of Well-Being", "setting": "[6]; Subject 2, 30 min.", "value": 6}, {"measurement": "VAS of Well-Being", "setting": "[6]; Subject 2, 60 min.", "value": 6}, {"measurement": "VAS of Well-Being", "setting": "[6]; Subject 2, 90 min.", "value": 6}, {"measurement": "VAS of Well-Being", "setting": "[6]; Subject 2, 120 min.", "value": 7}, {"measurement": "VAS of Well-Being", "setting": "[6]; Subject 2, 150 min.", "value": 7}, {"measurement": "Blood glucose levels", "setting": "[7]; Combined, 0 min.", "value": 89.5, "unit": "mg/dL"}, {"measurement": "Blood glucose levels", "setting": "[7]; Combined, 30 min.", "value": 87.5, "unit": "mg/dL"}, {"measurement": "Blood glucose levels", "setting": "[7]; Combined, 60 min.", "value": 81, "unit": "mg/dL"}, {"measurement": "Blood glucose levels", "setting": "[7]; Combined, 90 min.", "value": 79.5, "unit": "mg/dL"}, {"measurement": "Blood glucose levels", "setting": "[7]; Combined, 120 min.", "value": 87.5, "unit": "mg/dL"}, {"measurement": "Blood glucose levels", "setting": "[7]; Combined, 150 min.", "value": 84, "unit": "mg/dL"}, {"measurement": "Blood glucose levels", "setting": "[7]; Subject 1, 0 min.", "value": 88, "unit": "mg/dL"}, {"measurement": "Blood glucose levels", "setting": "[7]; Subject 1, 30 min.", "value": 84, "unit": "mg/dL"}, {"measurement": "Blood glucose levels", "setting": "[7]; Subject 1, 60 min.", "value": 79, "unit": "mg/dL"}, {"measurement": "Blood glucose levels", "setting": "[7]; Subject 1, 90 min.", "value": 83, "unit": "mg/dL"}, {"measurement": "Blood glucose levels", "setting": "[7]; Subject 1, 120 min.", "value": 85, "unit": "mg/dL"}, {"measurement": "Blood glucose levels", "setting": "[7]; Subject 1, 150 min.", "value": 87, "unit": "mg/dL"}, {"measurement": "Blood glucose levels", "setting": "[7]; Subject 2, 0 min.", "value": 91, "unit": "mg/dL"}, {"measurement": "Blood glucose levels", "setting": "[7]; Subject 2, 30 min.", "value": 91, "unit": "mg/dL"}, {"measurement": "Blood glucose levels", "setting": "[7]; Subject 2, 60 min.", "value": 83, "unit": "mg/dL"}, {"measurement": "Blood glucose levels", "setting": "[7]; Subject 2, 90 min.", "value": 76, "unit": "mg/dL"}, {"measurement": "Blood glucose levels", "setting": "[7]; Subject 2, 120 min.", "value": 90, "unit": "mg/dL"}, {"measurement": "Blood glucose levels", "setting": "[7]; Subject 2, 150 min.", "value": 81, "unit": "mg/dL"}]}]}
